Measurements from EP4603105A1, “PHARMACEUTICAL COMPOSITION CONTAINING CYCLIC COMPOUND HAVING SELECTIVE KRAS INHIBITORY EFFECT AGAINST HRAS AND NRAS” (CHUGAI SEIYAKU KABUSHIKI KAISHA, priority 2022, dated 2024).
Values belong to the molecule of their own block, whether it stands above or below them. *1 amine or outer side, *2 acyl side, *3 side chain or, on linkers, in order; H or OH if unused. Where a SMILES comes first, the peptide text is derived from it. Bridges are numbered along the chain shown (N, C = ends). [ ]: non-standard residue; d: D form. hPhe(3,5-F2-4-CF3) = N[C@@H](CCc1cc(F)c(C(F)(F)F)c(F)c1)C(=O)O; NPrPhe(4-CF3) = CCCN[C@@H](Cc1ccc(C(F)(F)F)cc1)C(=O)O; NMeGly(cPent) = CN[C@H](C(=O)O)C1CCCC1; X7 = C[C@@](N[*:1])(C(=O)[*:2])C1CC1; αMeCha = C[C@](N)(CC1CCCCC1)C(=O)O; X3 = CCC[C@](C)(N[*:1])C(=O)[*:2]; αMeI = CC[C@H](C)[C@](C)(N)C(=O)O; αMeF = C[C@](N)(Cc1ccccc1)C(=O)O; NMeD = CN[C@@H](CC(=O)O)C(=O)O; NMeL = CN[C@@H](CC(C)C)C(=O)O; αMeL = CC(C)C[C@](C)(N)C(=O)O; αMeV = CC(C)[C@](C)(N)C(=O)O; αMeS = C[C@](N)(CO)C(=O)O; Sar = CNCC(=O)O

Tests used:
HRAS wild-type protein = HRAS wild-type protein (Homo sapiens, UniProt P01112); experiment: Binding to HRAS by surface plasmon resonance (SPR), KD and KD ratio to KRAS; details: ratio of the KD value with respect to HRAS wild-type protein to the KD value with respect to KRAS
Sequence of HRAS wild-type protein (P01112 whole entry): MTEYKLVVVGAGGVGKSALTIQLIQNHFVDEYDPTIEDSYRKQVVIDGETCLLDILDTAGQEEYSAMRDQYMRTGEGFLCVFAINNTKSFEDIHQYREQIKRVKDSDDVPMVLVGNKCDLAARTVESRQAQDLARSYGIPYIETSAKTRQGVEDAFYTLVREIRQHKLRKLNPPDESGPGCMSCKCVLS
Method in brief: (§1)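 Recombinant RAS proteins bearing a biotinylated Avi tag and loaded with GDP served as the captured ligand, recaptured fresh every cycle. Binding responses were referenced to an uncoated surface and a buffer-only blank cycle. Dissociation constants were obtained by 1:1 model fitting at 30°C.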

[1] = biological target: GDP-bound NRAS wild-type protein (Homo sapiens, UniProt P01111); experiment: Binding to NRAS by surface plasmon resonance (SPR), KD and KD ratio to KRAS; details: ratio of the KD value with respect to GDP-bound NRAS wild-type protein to the KD value with respect to KRAS
Sequence of GDP-bound NRAS wild-type protein (P01111 whole entry): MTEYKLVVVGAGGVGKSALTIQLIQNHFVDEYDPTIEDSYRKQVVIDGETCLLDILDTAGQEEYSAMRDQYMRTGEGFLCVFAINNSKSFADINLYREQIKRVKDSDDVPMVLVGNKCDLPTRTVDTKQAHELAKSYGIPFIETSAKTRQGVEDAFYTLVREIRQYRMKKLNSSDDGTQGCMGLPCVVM
Method in brief: as §1

[2] = test system: human lung cancer strain NCI-H441; format: cell-based
Method in brief: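 Signal came from […] measured per well once the reagent was added. Beforehand, cells were cultured at 37°C and 5% carbon dioxide on a compound series serially diluted in dimethyl sulfoxide.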

SMILES: CC[C@H](C)[C@@H]1NC(=O)[C@H](CC)N(C)C(=O)C[C@@H](C(=O)N(C)C)N(CC)C(=O)[C@H](C2CCCC2)N(C)C(=O)C2(CCC2)NC(=O)[C@@H]2C[C@@H](N3CCC(F)(F)CC3)CN2C(=O)[C@H](CCc2cc(F)c(C(F)(F)F)c(F)c2)NC(=O)CN(C)C(=O)[C@H](Cc2ccc(C(F)(F)F)cc2)N2CCCC[C@@H](C2=O)N(C)C(=O)CN(C)C1=O [PP0733]
HRAS /KRAS (HRAS wild-type protein): B (a compound having 3 or more and less than 10 is denoted as B) | NRAS /KRAS [1]: B (a compound having 3 or more and less than 10 is denoted as B) | IC50 [2]: 220 nM

SMILES: CCCN1C(=O)CN(C)C(=O)CN(C)C(=O)[C@H]([C@@H](C)CC)NC(=O)[C@H](CC(C)C)N(C)C(=O)C[C@@H](C(=O)N(C)C)N(C)C(=O)[C@H](C2CCCC2)N(C)C(=O)[C@](C)(C2CC2)NC(=O)[C@@H]2CCCN2C(=O)[C@H](CCc2cc(F)c(C(F)(F)F)c(F)c2)NC(=O)CN(C)C(=O)[C@@H]1Cc1ccc(C(F)(F)F)cc1 [PP0734] ([NMeL]I[Sar][Sar][NPrPhe(4-CF3)][Sar][hPhe(3,5-F2-4-CF3)]P[X7][NMeGly(cPent)][NMeD]-NMe2; lactam N-11)
HRAS /KRAS (HRAS wild-type protein): C (A compound having a KD ratio of 0.1 or more and less than 3 is denoted as C) | NRAS /KRAS [1]: B (a compound having 3 or more and less than 10 is denoted as B) | IC50 [2]: 28.8 nM

SMILES: CCCN1C(=O)CN(C)C(=O)CN(C)C(=O)[C@H]([C@@H](C)CC)NC(=O)[C@H](CC(C)C)N(C)C(=O)C[C@@H](C(=O)N(C)C)N(C)C(=O)[C@H](C2CCCC2)N(C)C(=O)[C@](C)(C(C)C)NC(=O)[C@@H]2CCCN2C(=O)[C@H](CCc2cc(F)c(C(F)(F)F)c(F)c2)NC(=O)CN(C)C(=O)[C@@H]1Cc1ccc(C(F)(F)F)cc1 [PP0735] ([NMeL]I[Sar][Sar][NPrPhe(4-CF3)][Sar][hPhe(3,5-F2-4-CF3)]P[αMeV][NMeGly(cPent)][NMeD]-NMe2; lactam N-11)
HRAS /KRAS (HRAS wild-type protein): C (A compound having a KD ratio of 0.1 or more and less than 3 is denoted as C) | NRAS /KRAS [1]: B (a compound having 3 or more and less than 10 is denoted as B) | IC50 [2]: 40.9 nM

SMILES: CCCN1C(=O)CN(C)C(=O)CN(C)C(=O)[C@H]([C@@H](C)CC)NC(=O)[C@H](CC(C)C)N(C)C(=O)C[C@@H](C(=O)N(C)C)N(C)C(=O)[C@H](C2CCCC2)N(C)C(=O)[C@](C)(CC2CCCCC2)NC(=O)[C@@H]2CCCN2C(=O)[C@H](CCc2cc(F)c(C(F)(F)F)c(F)c2)NC(=O)CN(C)C(=O)[C@@H]1Cc1ccc(C(F)(F)F)cc1 [PP0739] ([NMeL]I[Sar][Sar][NPrPhe(4-CF3)][Sar][hPhe(3,5-F2-4-CF3)]P[αMeCha][NMeGly(cPent)][NMeD]-NMe2; lactam N-11)
HRAS /KRAS (HRAS wild-type protein): C (A compound having a KD ratio of 0.1 or more and less than 3 is denoted as C) | NRAS /KRAS [1]: B (a compound having 3 or more and less than 10 is denoted as B) | IC50 [2]: 297 nM

Continued, in another order:

IC50 [2]: 39.6 nM
SMILES: CC[C@H](C)[C@@H]1NC(=O)[C@H](CC)N(C)C(=O)C[C@@H](C(=O)N(C)C)N(C)C(=O)[C@H](C2CCCC2)N(C)C(=O)C2(CCC2)NC(=O)[C@@H]2C[C@H](N3CCC(F)(F)CC3)CN2C(=O)[C@H](CCc2cc(F)c(C(F)(F)F)c(F)c2)NC(=O)CN(C)C(=O)[C@H](Cc2ccc(C(F)(F)F)cc2)N2CCCC[C@@H](C2=O)N(C)C(=O)CN(C)C1=O [PP0732]
HRAS /KRAS (HRAS wild-type protein): B (a compound having 3 or more and less than 10 is denoted as B) | NRAS /KRAS [1]: C (A compound having a KD ratio of 0.1 or more and less than 3 is denoted as C)

IC50 [2]: 130 nM
SMILES: CCCN1C(=O)CN(C)C(=O)CN(C)C(=O)[C@H]([C@@H](C)CC)NC(=O)[C@H](CC(C)C)N(C)C(=O)C[C@@H](C(=O)N(C)C)N(C)C(=O)[C@H](C2CCCC2)N(C)C(=O)[C@](C)([C@@H](C)CC)NC(=O)[C@@H]2CCCN2C(=O)[C@H](CCc2cc(F)c(C(F)(F)F)c(F)c2)NC(=O)CN(C)C(=O)[C@@H]1Cc1ccc(C(F)(F)F)cc1 [PP0736] ([NMeL]I[Sar][Sar][NPrPhe(4-CF3)][Sar][hPhe(3,5-F2-4-CF3)]P[αMeI][NMeGly(cPent)][NMeD]-NMe2; lactam N-11)
HRAS /KRAS (HRAS wild-type protein): C (A compound having a KD ratio of 0.1 or more and less than 3 is denoted as C) | NRAS /KRAS [1]: B (a compound having 3 or more and less than 10 is denoted as B)

IC50 [2]: 38.2 nM
SMILES: CCCN1C(=O)CN(C)C(=O)CN(C)C(=O)[C@H]([C@@H](C)CC)NC(=O)[C@H](CC(C)C)N(C)C(=O)C[C@@H](C(=O)N(C)C)N(C)C(=O)[C@H](C2CCCC2)N(C)C(=O)[C@](C)(CCC)NC(=O)[C@@H]2CCCN2C(=O)[C@H](CCc2cc(F)c(C(F)(F)F)c(F)c2)NC(=O)CN(C)C(=O)[C@@H]1Cc1ccc(C(F)(F)F)cc1 [PP0737] ([NMeL]I[Sar][Sar][NPrPhe(4-CF3)][Sar][hPhe(3,5-F2-4-CF3)]P[X3][NMeGly(cPent)][NMeD]-NMe2; lactam N-11)
HRAS /KRAS (HRAS wild-type protein): C (A compound having a KD ratio of 0.1 or more and less than 3 is denoted as C) | NRAS /KRAS [1]: B (a compound having 3 or more and less than 10 is denoted as B)

IC50 [2]: 99.2 nM
SMILES: CCCN1C(=O)CN(C)C(=O)CN(C)C(=O)[C@H]([C@@H](C)CC)NC(=O)[C@H](CC(C)C)N(C)C(=O)C[C@@H](C(=O)N(C)C)N(C)C(=O)[C@H](C2CCCC2)N(C)C(=O)[C@](C)(CC(C)C)NC(=O)[C@@H]2CCCN2C(=O)[C@H](CCc2cc(F)c(C(F)(F)F)c(F)c2)NC(=O)CN(C)C(=O)[C@@H]1Cc1ccc(C(F)(F)F)cc1 [PP0738] ([NMeL]I[Sar][Sar][NPrPhe(4-CF3)][Sar][hPhe(3,5-F2-4-CF3)]P[αMeL][NMeGly(cPent)][NMeD]-NMe2; lactam N-11)
HRAS /KRAS (HRAS wild-type protein): B (a compound having 3 or more and less than 10 is denoted as B) | NRAS /KRAS [1]: B (a compound having 3 or more and less than 10 is denoted as B)

IC50 [2]: 51.2 nM
SMILES: CCCN1C(=O)CN(C)C(=O)CN(C)C(=O)[C@H]([C@@H](C)CC)NC(=O)[C@H](CC(C)C)N(C)C(=O)C[C@@H](C(=O)N(C)C)N(C)C(=O)[C@H](C2CCCC2)N(C)C(=O)[C@](C)(Cc2ccccc2)NC(=O)[C@@H]2CCCN2C(=O)[C@H](CCc2cc(F)c(C(F)(F)F)c(F)c2)NC(=O)CN(C)C(=O)[C@@H]1Cc1ccc(C(F)(F)F)cc1 [PP0740] ([NMeL]I[Sar][Sar][NPrPhe(4-CF3)][Sar][hPhe(3,5-F2-4-CF3)]P[αMeF][NMeGly(cPent)][NMeD]-NMe2; lactam N-11)
HRAS /KRAS (HRAS wild-type protein): C (A compound having a KD ratio of 0.1 or more and less than 3 is denoted as C) | NRAS /KRAS [1]: B (a compound having 3 or more and less than 10 is denoted as B)

IC50 [2]: 51.5 nM
SMILES: CCCN1C(=O)CN(C)C(=O)CN(C)C(=O)[C@H]([C@@H](C)CC)NC(=O)[C@H](CC(C)C)N(C)C(=O)C[C@@H](C(=O)N(C)C)N(C)C(=O)[C@H](C2CCCC2)N(C)C(=O)[C@](C)(COC)NC(=O)[C@@H]2CCCN2C(=O)[C@H](CCc2cc(F)c(C(F)(F)F)c(F)c2)NC(=O)CN(C)C(=O)[C@@H]1Cc1ccc(C(F)(F)F)cc1 [PP0741] ([NMeL]I[Sar][Sar][NPrPhe(4-CF3)][Sar][hPhe(3,5-F2-4-CF3)]P[αMeS](Me)[NMeGly(cPent)][NMeD]-NMe2; lactam N-11)
HRAS /KRAS (HRAS wild-type protein): B (a compound having 3 or more and less than 10 is denoted as B) | NRAS /KRAS [1]: B (a compound having 3 or more and less than 10 is denoted as B)
